Assay results from patent publication US20220056075A1, “METHOD FOR TREATING OPIOID USE DISORDER” (THE ADMINISTRATORS OF THE TULANE EDUCATIONAL FUND, priority 2019, published 2022).
Several values for one entry are separate records, joined by “and”; a condition that tells them apart may be missing. Equal values may be shown once. Entries after “also recorded” stand apart in the source; their conditions may differ.

Tests used:
Male Sprague Dawley rats [1] = assay: Locomotor sensitization during CPP conditioning sessions; type: in vivo, rat; conditions: 1.8, 3.2, 5.6 mg/Kg i.v., 5 daily injections, compared to vehicle
Protocol: (§1) Conditioned Place Preference (CPP) and locomotor activity: Standard CPP chambers (TSE; Chesterfield, Mo.) were used to measure baseline activity and conditioning trials. Baseline activity was measured over 2 days with 4 trials per day (2 in the AM, and 2 in the PM) lasting 20 min each. […] Conditioning trials were conducted for 5 days and tested in an unbiased manner such that drug/environment pairings were counterbalanced for time of drug injection (AM or PM) and compartment (preferred or non-preferred) based on baseline activity. […] This indicates a lack of carry-over effects of drug between sessions. One day following the last conditioning trial, a 20 min test trial was conducted in the same manner as baseline trials in which rats were free to explore both compartments. Change in time spent exploring the drug-paired compartment (test-baseline) was used to indicate preference (or aversion) to the compartment. Approximately 20 min following the final session, rats were perfused and brain samples were taken for immunohistochemical analysis (below). Locomotor activity was assessed by infrared light beams located in the conditioning compartments and the start box. […] Data were recorded in meters and an assessment of locomotor sensitization was made by subtracting the first session from the final session.
(§2) Experimenters were blinded to treatment groups.

Male Sprague-Dawley rats = assay: Reinstatement of morphine-induced conditioned place preference; conditions: priming dose 1.8 mg/Kg, 20 min, vs baseline
Protocol: Male Sprague-Dawley rats were exposed to a conditioned place preference (CPP) apparatus for two sessions to determine baseline (BL) preference for 2 distinct, unbiased chambers. […] The animals then underwent extinction procedures consisting of confinement for 45 min in the previously drug- and vehicle-paired chambers for 7 days.

[2] = cumulative doses producing maximum antinociceptive effects; cited from earlier work
[3] = system: rats trained to discriminate morphine from vehicle; assay: Drug discrimination (DD), morphine-trained rats; conditions: for Response rate impairment %: highest dose tested (5.6 mg/Kg), percent of vehicle responding
Protocol: Drug Discrimination (DD): Rats were food deprived to approximately 85% of the weight of free feeding cohorts to establish operant responding for 45 mg food pellets (Bioserve, Frenchtown, N.J.) in standard operant chambers (MED Associates, St. Albans, Vt.). Rats were fed 10-20 g of standard food after daily DD sessions, and ˜3× the daily amount on weekends to maintain appropriate weight. DD consisted of 3 phases (Krivsky et al., 2006). In phase 1, rats were trained to lever press for food at a fixed ratio (FR) level 1 (i.e., 1 lever press=1 food pellet) using 2 levers with stimulus lights located above each lever and a food hopper between the levers during 120 min sessions. Responding on either lever extinguished the light and delivered a food pellet. […] Once >20 pellets were earned at FR9, sessions were shortened to 20 min and response requirements were set at FR10 and the left or right lever reinforced responding on alternate days. Once >20 pellets were earned on each lever at FR10, rats started phase 2 of DD training.
Only responses on the correct lever were reinforced and responses on the incorrect lever reset the response requirement on the correct lever. Criteria to move to phase 3 were as follows: >20 pellets per session, >90% injection appropriate lever responding, and <9 responses on the incorrect lever before the first food pellet reward.
Two paradigms were utilized to generate substitution curves: cumulative within-session and bolus between-session injections.
During substitution tests, both levers actively delivered food at an FR10 schedule. […] Doses were increased in ¼ log increments, with injections every 20 min followed 15 minutes later by DD sessions lasting 5 min each. […] The advantage of this procedure was that an entire dose-response was generated in one session.
Statistics: PRISM software (GraphPad, San Diego, Calif.) was used for one-way analysis of variance (ANOVA) with Newman-Keuls post-hoc comparisons to compare CPP groups, locomotor effects, hot plate, and DD response rates. Locomotor data recorded during the conditioning sessions were analyzed by 2-way ANOVA (session x drug) and data from the first session were subtracted from the final session to assess locomotor enhancement. Experimenters were blinded to treatment groups.

male and female rats = assay: Naloxone-induced conditioned place aversion (CPA); type: in vivo, rat; conditions: i.v. morphine 5.6 mg/Kg or ZH853 4.2 mg/Kg, naloxone 1 mg/Kg s.c. 4 h later
Protocol: Four hours later they received s.c. naloxone (1 mg/Kg) and were confined to one side of the apparatus (counterbalanced) for 20 min. The following day the animals received vehicle-then-saline rather than drug-then-naloxone. This cycle (drug+4 h+nlx+next day vehicle+saline) was repeated once, and the next day the animals had access to the entire apparatus (Post-cond).
To assess whether ZH853 induces the negative affect typical of opioid withdrawal, the conditioned place aversion (CPA) test was conducted.

Male Sprague Dawley rats [4] = assay: Conditioned place preference (CPP), 5-day procedure; type: in vivo, rat; conditions: 5 days of conditioning, 1.8, 3.2, 5.6 mg/Kg i.v.
Protocol: as §1, §2

glia = conditions: conditions where morphine activates glia; cited from earlier work
male and female mice = conditions: acute, equi-antinociceptive doses
rats = conditions: cited from earlier work
male rats = assay: Maintenance of established oxycodone self-administration (substitution); type: in vivo, rat
Protocol: Self-administration (SA): Self-administration tests were conducted in standard operant chambers (MED Associates, St. Albans, Vt.). Infusions were delivered through TYGON tubing threaded through metal spring leashes and attached to exterior infusion pumps. 3-hour sessions were conducted Monday-Friday during the dark cycle. At the start of each session, the house light was illuminated, and levers extended. […] For the first 5 sessions, rats were trained to lever press for oxycodone (0.1 mg/kg/infusion) on a FR1 reinforcement schedule. For the following 10 sessions, the dose of oxycodone was decreased to 0.05 mg/kg/infusion to increase lever responding.
Maintenance of established oxycodone self-administration: Following acquisition of oxycodone self-administration, animals were split into treatment groups counterbalanced for total oxycodone intake, average number of infusions obtained in the last 3 sessions, and average number of active lever pressings over the last 3 sessions. Ten maintenance sessions were conducted in the same way as oxycodone acquisition except rats were either maintained on 0.1 mg/kg/infusion oxycodone or had drug availability substituted with equi-antinociceptive 1 mg/kg/infusion ZH853 or vehicle.

Structure (SMILES): NC(=O)CNC(=O)[C@@H]1CCC(=O)NCCCC[C@@H](NC(=O)[C@@H](N)Cc2ccc(O)cc2)C(=O)N[C@@H](Cc2c[nH]c3ccccc23)C(=O)N[C@@H](Cc2ccccc2)C(=O)N1 [ZH853, Tyr-c[D-Lys-Trp-Phe-Glu]-Gly-NH2]
- locomotor sensitization (LS), day 5 minus day 1 (Male Sprague Dawley rats [1]): did not produce LS at any dose tested
- reinstatement of morphine CPP after extinction (Male Sprague-Dawley rats): scores not significantly different from baseline
- motor impairment on the Rotarod [2]: lack of motor impairment
- Response rate impairment % ([3]; bolus injections): 15% and 15.1%
- Response rate impairment % ([3]; cumulative injections): 0.8%
- response rates for food during test sessions ([3]; i.v., compared to vehicle): not impaired; also recorded: lowest among all compounds tested
- naloxone-induced place aversion (male and female rats): did not produce a place aversion
- conditioned place preference (CPP) or aversion (Male Sprague Dawley rats [4]): did not produce CPP (or aversion) at any dose
- glial activation (glia): lack of glial activation
- distance traveled (AUC) (male and female mice): did not affect the distance traveled
- hourly SA intake (peak) (rats; 12-hour SA sessions, 3 mg/Kg/infusion): 1.1 mg/kg/h
- reinforcing effects in SA/CPP procedures (rats; rat, in vivo): did not produce reinforcing effects in SA/CPP procedures
- self-administration behavior during maintenance sessions (male rats; after acquisition of oxycodone SA, drug continued or substituted, i.v. infusions): the self-administration behavior extinguished over time; also recorded: reduced the number of infusions obtained (C) and active lever responses (D) over maintenance sessions
- rate of extinction of self-administration (male rats; substitution for oxycodone): faster than with vehicle substitution
